Target: α-Glucosidase (EC 3.2.1.20)
Conditions: read-out: IC50 values ± SEM against α-glucosidase enzyme; pH 6.9, 37° C., 0.5 μM p-nitrophenyl α-D-glucopyranoside substrate, 250 units/mL enzyme, 50 mM sodium phosphate buffer with 100 mM NaCl
Description: The increments in absorption at 400 nm due to the hydrolysis of PNP-G by α-glucosidase were monitored continuously with a molecular devices spectrophotometer.

Which IC50 does the source give for `CC(C)(O)[C@H]1CC[C@]2(C)[C@H]3CC[C@@H]4[C@@]5(C)CCCC(C)(C)[C@@H]5[C@@H](O)C[C@@]4(C)[C@]3(C)CC[C@@H]12` [Zeorin, 6,22-Hopanediol] here?
Its IC50 is 100 ± 0.3 µM.

From patent US7867989B2, “α-glucosidase inhibitors from lichens” (priority 2007, dated 2011)
